Results taken from patent EP0415126B1, “Anti-dental plaque agents” (MITSUI NORIN CO., LTD., priority 1989, dated 1991).

Tested on: glucosyltransferase
Assay: Inhibition of water-insoluble glucan formation by crude glucosyltransferase (14C-sucrose, scintillation counting)
Format: biochemical, Streptococcus mutans OMZ 176
Details: Water-insoluble glucan formation vs control, 60 minutes at 37°C, pH 6.8
Procedure: Crude glucosyltransferase was refined from Streptococcus mutans OMZ 176 according to the method described by Mukasa and Slads in Infect. Immun., 8, 555 (1973) and 9, 419 (1974).
The above GTF, labeled sucrose and the tea polyphenol compounds were mixed together to the following final concentrations, and was regulated with a 50 mM phosphate buffer (with pH 6.8). GTF: 0.34 mg protein/ml 0.1 mM (¹⁴C) sucrose: 0.1 »Ci/»l Present agent: 1 to 10 mg/ml or 1 to 10 mM.
Twenty (20) »l of the mixture solution were subjected to a reaction for 60 minutes at 37°C. After the completion of the reaction, 5 »l of the reaction mixture and 5 »l of supernatant obtained by centrifugation of the reaction mixture at 5,500 x g for 3 minutes were applied to a filter paper respectively, and then developed with a developing solution of butanol-pyridine-water (6:4:3), followed by counting with a scintillation counter. The amount of water-insoluble glucan was found by a difference between the measurements of the reaction mixture and the supernatant. The GTF inhibiting ability is expressed in terms of the rate of inhibiting the formation of water-insoluble glucan with respect to a control to which the tea polyphenol compounds were not added.

| Compound | Inhibition (%) (sample concentration 1.0 mM) | Inhibition (%) (sample concentration 10.0 mM) |
| --- | --- | --- |
| (-)-Gallocatechin | 20 | 30 |
| O=C(O[C@@H]1Cc2c(O)cc(O)cc2O[C@@H]1c1cc(O)c(=O)c2c(O)c(O)cc([C@H]3Oc4cc(O)cc(O)c4C[C@H]3OC(=O)c3cc(O)c(O)c(O)c3)c2c1)c1cc(O)c(O)c(O)c1 [Theaflavin digallate] | 56 | 98 |
| Oc1cc(O)c2c(c1)O[C@H](c1cc(O)c(O)c(O)c1)[C@@H](O)C2 [(+)-Gallocatechin] | 15 | 51 |
| O=C(O[C@@H]1Cc2c(O)cc(O)cc2O[C@@H]1c1cc(O)c(O)c2c(=O)c(O)cc([C@H]3Oc4cc(O)cc(O)c4C[C@H]3O)cc12)c1cc(O)c(O)c(O)c1 [Theaflavin monogallate B] | 47 | 98 |
| O=C(O[C@@H]1Cc2c(O)cc(O)cc2O[C@H]1c1cc(O)c(O)c(O)c1)c1cc(O)c(O)c(O)c1 [(-)-Gallocatechin gallate] | 47 | 95 |
| Oc1cc(O)c2c(c1)O[C@H](c1ccc(O)c(O)c1)[C@@H](O)C2 [(+)-Catechin] | 22 | 62 |
| O=C(O[C@@H]1Cc2c(O)cc(O)cc2O[C@@H]1c1cc(=O)c(O)c2c(O)c(O)cc([C@H]3Oc4cc(O)cc(O)c4C[C@H]3O)c2c1)c1cc(O)c(O)c(O)c1 [Theaflavin monogallate A] | 64 | 97 |
| Oc1cc(O)c2c(c1)O[C@@H](c1ccc(O)c(O)c1)[C@@H](O)C2 [(+)-Epicatechin] | 12 | 42 |
| (-)-Catechin | 15 | 45 |
| (-)-Epicatechin gallate | 35 | 83 |
| (-)-Epicatechin | 5 | 42 |
| O=c1c(O)cc([C@H]2Oc3cc(O)cc(O)c3C[C@H]2O)cc2c([C@H]3Oc4cc(O)cc(O)c4C[C@H]3O)cc(O)c(O)c12 [Free theaflavin] | 57 | 98 |
